Laboratory results as given in paper PMC12073635, “Synthesis of Tricyclic and Tetracyclic Lactone Derivatives of Thieno[2,3-b]pyrazine or Thieno[2,3-b]quinoline: Preliminary Antitumor and Antiparasitic Activity Evaluation” (Molecules, 2025).

What was measured:
[1] = test system: CaCo-2 (colorectal adenocarcinoma) cells; test: SRB cell growth inhibition assay, CaCo-2; type: cell-based, human; conditions: mean ± standard deviation
Method: (§1) The antitumor potential of the Sonogashira coupling products 2, tricyclic lactones 3 and 5, and tetracyclic lactones 7 was evaluated using the sulforhodamine B (SRB) assay against five human tumor cell lines: colorectal adenocarcinoma (CaCo-2), breast adenocarcinoma (MCF-7), gastric adenocarcinoma (AGS), cervical carcinoma (HeLa), and non-small cell lung cancer (NCI-H460). A primary pig liver cell culture (PLP2) was used to assess the toxicity of compounds.
(§2) The human tumor cell lines used were CaCo-2 (colorectal adenocarcinoma), MCF-7 (breast adenocarcinoma), AGS (gastric adenocarcinoma), HeLa (cervical carcinoma), NCI-H460 (lung carcinoma). Non-tumor cell lines were also tested: PLP2 (primary pig liver culture). All the cell lines were maintained in RPMI-1640 medium supplemented with 10% fetal bovine serum, glutamine (2 mM), penicillin (100 U/mL), and streptomycin ([…]), with the exception of PLP2, which was maintained in DMEM medium supplemented with fetal bovine serum (10%), glutamine and antibiotics. The culture flasks were incubated at 37 °C and with 5% CO2, under a humid atmosphere. The cells were used only when they had 70 to 80% confluence. A known mass of each compound was dissolved in DMSO/H2O (1:1, 1 mL), in order to obtain the stock solutions with a concentration of 1 mM. […] Each compound concentration (10 μL) was incubated with the cell suspension (190 μL) of the cell lines tested in 96-well microplates for 72 h. The microplates were incubated at 37 °C and with 5% CO2 in a humid atmosphere after checking the adherence of the cells. All cell lines were tested at a concentration of 10,000 cells/well. After the incubation period, the cells were treated: TCA (10% w/v; 100 μL) was previously cooled, and plates were incubated for 1 h at 4 °C, washed with water, and, after drying, a SRB solution (0.057%, m/v; 100 μL) was added and left to stand at room temperature for 30 min. To remove non-adhered SRB, plates were washed three times with a solution of acetic acid (1% v/v) and placed to dry. Finally, an adhered SRB was solubilized with Tris (10 mM, 200 μL) and the absorbance at a wavelength of 540 nm was read in the Biotek ELX800 microplate reader. The results obtained by the SRB assay were expressed regarding the concentration compounds that can inhibit cell growth by 50%—GI50. Doxorubicin was used as a positive control.

[2] = SRB assay, toxicity in non-tumor PLP2 cells; type: cell-based, pig; conditions: PLP2 primary pig liver cells (non-tumor); non-tumor primary pig liver cells, SRB assay, 72 h, mean ± standard deviation
Method: as §1, §2

[3] = test system: five human tumor cell lines (CaCo-2, MCF-7, AGS, HeLa, NCI-H460); test: SRB assay, statements over the five human tumor cell lines; type: cell-based; conditions: text statement over CaCo-2, MCF-7, AGS, read-out: GI50 in all tested human tumor cell lines
Method: as §1
The human tumor cell lines used were CaCo-2 (colorectal adenocarcinoma), MCF-7 (breast adenocarcinoma), AGS (gastric adenocarcinoma), HeLa (cervical carcinoma), NCI-H460 (lung carcinoma). Non-tumor cell lines were also tested: PLP2 (primary pig liver culture). All the cell lines were maintained in RPMI-1640 medium supplemented with 10% fetal bovine serum, glutamine (2 mM), penicillin (100 U/mL), and streptomycin ([…]), with the exception of PLP2, which was maintained in DMEM medium supplemented with fetal bovine serum (10%), glutamine and antibiotics. The culture flasks were incubated at 37 °C and with 5% CO2, under a humid atmosphere. The cells were used only when they had 70 to 80% confluence. […] Finally, an adhered SRB was solubilized with Tris (10 mM, 200 μL) and the absorbance at a wavelength of 540 nm was read in the Biotek ELX800 microplate reader. […]

[4] = test system: THP-1-derived macrophages; test: MTT cytotoxicity in THP-1-derived macrophages; type: cell-based, human
Method: Human leukemia cell line, THP-1 (ATCC® TIB-202™, Manassas, VA, USA) was cultured in RPMI-1640 medium supplemented with 10% heat-inactivated Fetal Bovine Serum (FBS), 2 mM L-glutamine, 100 UI/mL penicillin/streptomycin, 20 mM HEPES. The cell line was maintained in a humidified incubator at 37 °C and 5% CO2 by subculture every three days in 20 mL of media at a concentration of 1 × 10^5/mL in a T75 flask. All cell culture reagents were purchased from Lonza-Bioscience (Morrisville, NC, USA).
The cytotoxicity effect of compounds on THP-1-derived macrophages was assessed by the colorimetric MTT assay (3-(4,5-dimethylthiazol-2-yl)-2,5-diphenyl tetrazolium bromide). Briefly, THP-1 cells were suspended in RPMI complete medium at a density of 1 × 10^6 cells/mL and 100 μL/well were seeded in a 96-well plate and were differentiated into macrophages by addition of 40 ng/mL of phorbol-myristate 13-acetate (PMA, Sigma, Saint Louis, MI, USA) for 24 h followed by replacement with fresh medium for more 24 h. Subsequently, cells were incubated with 100 μL of compounds ranging from 100 to 12.5 μM after dilution in the RPMI complete medium. Each condition was carried out in quadruplicate. After 72 h of incubation at 37 °C 5% CO2, the medium was removed and 200 μL of 0.5 mg/mL MTT solution diluted in RPMI was added. Plates were incubated for an additional 4 h. Then 160 μL of media was removed and the same volume of 2-propanol was added. Absorbance was read at 570 nm using a Synergy 2 Multi-Mode Reader (Biotek, Winooski, VT, USA). Cytotoxicity was evaluated by the determination of the CC50 value (drug concentration that reduced the percentage of viable cells in 50%) and calculated by non-linear regression analysis using GraphPad Prism version 8.1.1 for Windows (GraphPad Software, San Diego, CA, USA). The results represent the average of at least three independent experiments. For each compound, the Selectivity Index (SI) was calculated as the ratio between cytotoxicity in THP-1 (CC50, 72 h) and activity against parasites (IC50, 72 h).

Row | Structure (SMILES) | GI50 ([1]; 72 h) [µM] | GI50 ([1]; Homo sapiens, Caco-2, 72 h) [µM] | GI50 at 72 h [2] [µM] | GI50 [3] [µM] | cytotoxicity in THP-1-derived macrophages (in words) [4]
1 | COC(=O)c1sc2nccnc2c1C#Cc1ccccn1 [Compound 2f, Methyl 7-(pyridin-2-ylethynyl)thieno[2,3-b]pyrazine-6-carboxylate] | 3.72 ± 2.42 | < 5 | 57.9 ± 4.31 | < 10 | some level of toxicity
2 | O=c1oc(-c2ccccn2)cc2c1sc1nccnc12 [Compound 3f, 8-(Pyridin-2-yl)-6H-pyrano[4′,3′:4,5]thieno[2,3-b]pyrazin-6-one] | – | 58.8 ± 2.44 | > 125 | < 10 | some degree of cytotoxicity
